Reference: paper PMC9358669, “Native metabolomics identifies the rivulariapeptolide family of protease inhibitors” (Nature Communications, 2022)
Where “and” joins values, the source holds several entries; their conditions need not be identical. Equal entries are not always repeated. Where two headings read alike, the source gives them in different places.

Experiments:
Chymotrypsin [1] = target: T1, Chymotrypsin (Bos taurus, UniProt P00766); experiment: Chymotrypsin inhibition, fluorogenic substrate assay (Suc-Ala-Ala-Pro-Phe-AMC); type: biochemical; conditions: for Mean (RFU/s): Chymotrypsin
T1 construct: purchased Sigma-Aldrich

Proteinase K = target: T2, Proteinase K (Parengyodontium album, UniProt P06873); experiment: Proteinase K inhibition, fluorogenic substrate assay (Suc-Ala-Ala-Pro-Phe-AMC); type: biochemical, Tritirachium album; conditions: 40 min pre-incubation; for Mean (RFU/s): Proteinase K
T2 construct: purchased Roche

Chymotrypsin [2] = system: Chymotrypsin; parameters: method as in earlier work; conditions: Supplementary Table 5, Top 50 chymotrypsin inhibitors among Ahp-cyclodepsipeptides; cited from earlier work
Chymotrypsin [3] = target: T1, Chymotrypsin; experiment: Native metabolomics / native MS detection of chymotrypsin-ligand complexes; type: binding; conditions: for max. Ligand-protein ratio: replicates A, B, C
Method: For native metabolomics experiments, the same chromatographic parameters were used and in addition, 220 µL/min (setup A) or 150 µL/min (setup B) ammonium acetate buffer was infused post-column through a make-up pump and a PEEKT-splitter and enzyme solution was infused with 2 µL/min flow rate via the integrated syringe pump. ESI settings were set to 40 arb. units sheath gas flow, the auxiliary gas flow was set to 10 arb. units and sweep gas flow was set to 0 arb. units. The auxiliary gas temperature was set to 150 °C. The spray voltage was set to 3 kV and the inlet capillary was heated to 253 °C. S-lens level was set to 30 V applied. MS scan range was set to 2000-4000 m/z (setup A) and 2500–4000 m/z (setup B) with a resolution Rm/z 200 140,000 (setup A) and 120,000 (setup B) with 2 microscans. MS acquisition was performed in all-ion fragmentation (AIF) mode with Rm/z 200 with 20% HCD collision energy and an isolation window of 2000 –4000 m/z (setup A) or 2500–4000 m/z (setup B).
For native LC-MS data, multiple charged spectra were deconvoluted using the Xtract algorithm in Qualbrowser, part of the Xcalibur software (Thermo Scientific) and also using FLASHDeconv (version 2.0Beta) {Jeong, K. et al. FLASHDeconv: Ultrafast, High-Quality Feature Deconvolution for Top- Down Proteomics. Cell Syst 10, 213-218 e216 (2020).}. For Xtract algorithm, both deconvoluted native LC-MS and metabolomics LC-MS/MS.raw files were converted to the centroid.mzML file format using MSconvert of the proteowizard software package. For FLASHDeconv, the raw files were converted into centroid m/zML again using MSconvert software first. Then the converted mzML files were deconvolved to generate deconvolved.mzML format files. Feature finding of both file types was performed using a modified version of MZmine2.37 (corr.17.7). Feature tables from both intact protein mass and metabolomics data were matched by their retention time (RT) and an m/z offset corresponding to the mass of chymotrypsin (25234 Da) with an RT tolerance of 0.2 min and a mass tolerance of 4 Da.
To optimize ESI setting as well as the influence of NH4Acetate concentration and pH, we used molassamide as a test compound. For optimization of ESI settings, we performed flow injections without a column and ramped ESI aux gas temperature, in-source CID energy, S-lense RF voltage. Optimization of pH values over the entire LC gradient and peak intensities were both assessed using three different make-up buffers. Make-up buffer 1 was water, make-up buffer 2 was 10 mM NH4Acetate buffer, and make-up buffer 3 was 10 mM NH4Acetate buffer + 0.2% ammonium hydroxide, v/v. Effects of NH4Acetate concentration was assessed with an online mixed make-up flow (using Experimental Setup B) with the low-pressure gradient pump. As solvent A we used LC-MS grade water and 100 mM NH4Acetate as solvent B. Molassamide was prepared as 100 µM solutions from a 10 mM stock solution in DMSO by preparing a 1:100 dilution into solvent mixture 1 (water + 10% acetonitrile + 0.1% formic acid). Samples were analyzed as described in micro-flow LC-MS/MS data acquisition (setup A); 2 µL of each solution were injected into the mass spectrometer, while chymotrypsin (Sigma), dissolved in water to a final concentration of 2 mg/mL, was injected through the syringe pump at a flow rate of 2 µL/min. pH values were assessed by disconnecting the flow to the source and collecting ~30 µL of solvent every minute, then testing this value on pH paper.
Molassamide was prepared as 100 µM solutions from a 10 mM stock solution in DMSO by preparing a 1:100 dilution into solvent mixture 1 (water + 10% acetonitrile + 0.1% formic acid). From this 100 µM solution, dilutions were prepared at 10, 1, and 0.1 µM into solvent mixture 1. 2 µL of each solution were injected into the mass spectrometer. […]

Elastase = target: T3, Elastase (Sus scrofa, UniProt P00772); experiment: Elastase inhibition, fluorogenic substrate assay (MeOSuc-Ala-Ala-Pro-Val-AMC); type: biochemical, Sus domesticus; conditions: 40 min pre-incubation; for Mean (RFU/s): Elastase
T3 construct: purchased Sigma-Aldrich

[4] = inhibitor concentration 0.0508053 nM
[5] = inhibitor concentration 0.152416 nM
[6] = inhibitor concentration 0.457247 nM
[7] = inhibitor concentration 1.37174 nM
[8] = inhibitor concentration 4.11523 nM
[9] = inhibitor concentration 12.3457 nM
[10] = inhibitor concentration 37.037 nM
[11] = inhibitor concentration 111.111 nM
[12] = inhibitor concentration 333.333 nM
[13] = inhibitor concentration 1000 nM
[14] = inhibitor concentration 3000 nM

T2 sequence (P06873 106-384): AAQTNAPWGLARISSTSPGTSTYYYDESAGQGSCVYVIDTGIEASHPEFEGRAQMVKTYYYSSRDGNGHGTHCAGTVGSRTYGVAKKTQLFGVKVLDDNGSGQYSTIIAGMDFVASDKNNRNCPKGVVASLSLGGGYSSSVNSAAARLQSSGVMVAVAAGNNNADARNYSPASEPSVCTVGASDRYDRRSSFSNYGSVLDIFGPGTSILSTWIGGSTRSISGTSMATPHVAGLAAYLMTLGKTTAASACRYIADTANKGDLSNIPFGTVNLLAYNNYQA
T3 sequence (P00772 27-266): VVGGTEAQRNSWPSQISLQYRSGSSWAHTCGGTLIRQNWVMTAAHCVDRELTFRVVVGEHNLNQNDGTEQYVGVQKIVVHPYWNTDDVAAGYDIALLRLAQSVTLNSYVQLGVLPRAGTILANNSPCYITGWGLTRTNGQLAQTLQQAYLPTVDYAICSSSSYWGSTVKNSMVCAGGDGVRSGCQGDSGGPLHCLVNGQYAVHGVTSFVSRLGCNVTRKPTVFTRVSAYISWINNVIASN

C/C=C1\NC(=O)[C@@H](NC(=O)[C@@H](NC(=O)[C@H](C)NC(=O)CCC)[C@@H](C)O)[C@@H](C)OC(=O)[C@H](C(C)C)NC(=O)[C@H](Cc2ccc(O)cc2)N(C)C(=O)[C@H](Cc2ccccc2)N2C(=O)[C@H](CC[C@H]2O)NC1=O [Molassamide, molassamide]
IC50 (Chymotrypsin [1]; 40 min pre-incubation, mean, n = 3, read-out: IC50 Chymotrypsin): 863 nM
Mean (RFU/s) (Chymotrypsin [1]; inhibitor concentration 0.0508053 nM, 40 min pre-incubation): 5.082 RFU/s
Mean (RFU/s) (Chymotrypsin [1]; inhibitor concentration 0.152416 nM, 40 min pre-incubation): 5.023 RFU/s
Mean (RFU/s) (Chymotrypsin [1]; inhibitor concentration 0.457247 nM, 40 min pre-incubation): 5.172 RFU/s
Mean (RFU/s) (Chymotrypsin [1]; inhibitor concentration 1.37174 nM, 40 min pre-incubation): 5.411 RFU/s
Mean (RFU/s) (Chymotrypsin [1]; inhibitor concentration 4.11523 nM, 40 min pre-incubation): 5.346 RFU/s
Mean (RFU/s) (Chymotrypsin [1]; inhibitor concentration 12.3457 nM, 40 min pre-incubation): 5.257 RFU/s
Mean (RFU/s) (Chymotrypsin [1]; inhibitor concentration 37.037 nM, 40 min pre-incubation): 4.609 RFU/s
Mean (RFU/s) (Chymotrypsin [1]; inhibitor concentration 111.111 nM, 40 min pre-incubation): 4.56 RFU/s
Mean (RFU/s) (Chymotrypsin [1]; inhibitor concentration 333.333 nM, 40 min pre-incubation): 3.784 RFU/s
Mean (RFU/s) (Chymotrypsin [1]; inhibitor concentration 1000 nM, 40 min pre-incubation): 2.129 RFU/s
Mean (RFU/s) (Chymotrypsin [1]; inhibitor concentration 3000 nM, 40 min pre-incubation): 0.9597 RFU/s
IC50 (Chymotrypsin [1]; Supplementary Table 5, compounds of this study, read-out: Chymotrypsin IC50): 862 nM
IC50 (Proteinase K; mean, n = 3): 21.6 nM
Mean (RFU/s) (Proteinase K; [4]): 6.609 RFU/s
Mean (RFU/s) (Proteinase K; [5]): 6.463 RFU/s
Mean (RFU/s) (Proteinase K; [6]): 6.371 RFU/s
Mean (RFU/s) (Proteinase K; [7]): 6.067 RFU/s
Mean (RFU/s) (Proteinase K; [8]): 5.597 RFU/s
Mean (RFU/s) (Proteinase K; [9]): 4.375 RFU/s
Mean (RFU/s) (Proteinase K; [10]): 2.174 RFU/s
Mean (RFU/s) (Proteinase K; [11]): 0.71 RFU/s
Mean (RFU/s) (Proteinase K; [12]): 0.19 RFU/s
Mean (RFU/s) (Proteinase K; [13]): 0.07 RFU/s
Mean (RFU/s) (Proteinase K; [14]): 0 RFU/s
IC50 (Chymotrypsin [2]): 234 nM
Relative abundance Chymotrypsin-molassamide complex [%], Average (Chymotrypsin [3]; HESI Aux Gas Temperature 40 °C): 32.7%
Relative abundance Chymotrypsin-molassamide complex [%], Average (Chymotrypsin [3]; HESI Aux Gas Temperature 70 °C): 28.3%
Relative abundance Chymotrypsin-molassamide complex [%], Average (Chymotrypsin [3]; HESI Aux Gas Temperature 100 °C): 32.3%
Relative abundance Chymotrypsin-molassamide complex [%], Average (Chymotrypsin [3]; HESI Aux Gas Temperature 140 °C): 39.0%
Relative abundance Chymotrypsin-molassamide complex [%], Average (Chymotrypsin [3]; HESI Aux Gas Temperature 170 °C): 34.0%
Relative abundance Chymotrypsin-molassamide complex [%], Average (Chymotrypsin [3]; HESI Aux Gas Temperature 200 °C): 35.3%
Relative abundance Chymotrypsin-molassamide complex [%], Average (Chymotrypsin [3]; HESI Aux Gas Temperature 250 °C): 27.7%
Relative abundance Chymotrypsin-molassamide complex [%], Average (Chymotrypsin [3]; HESI Aux Gas Temperature 300 °C): 28.7%
Relative abundance Chymotrypsin-molassamide complex [%], Average (Chymotrypsin [3]; In-Source CID Energy 0 eV): 27.7%
Relative abundance Chymotrypsin-molassamide complex [%], Average (Chymotrypsin [3]; In-Source CID Energy 10 eV): 29.3%
Relative abundance Chymotrypsin-molassamide complex [%], Average (Chymotrypsin [3]; In-Source CID Energy 20 eV): 33.0%
Relative abundance Chymotrypsin-molassamide complex [%], Average (Chymotrypsin [3]; In-Source CID Energy 30 eV): 32.3%
Relative abundance Chymotrypsin-molassamide complex [%], Average (Chymotrypsin [3]; In-Source CID Energy 40 eV): 30.7%
Relative abundance Chymotrypsin-molassamide complex [%], Average (Chymotrypsin [3]; In-Source CID Energy 60 eV): 12.3%
Relative abundance Chymotrypsin-molassamide complex [%], Average (Chymotrypsin [3]; In-Source CID Energy 80 eV): 1.3%
Relative abundance Chymotrypsin-molassamide complex [%], Average (Chymotrypsin [3]; S-Lense RF level 10 %): 34.3%
Relative abundance Chymotrypsin-molassamide complex [%], Average (Chymotrypsin [3]; S-Lense RF level 30 %): 31.0%
Relative abundance Chymotrypsin-molassamide complex [%], Average (Chymotrypsin [3]; S-Lense RF level 50 %): 30.0%
Relative abundance Chymotrypsin-molassamide complex [%], Average (Chymotrypsin [3]; S-Lense RF level 70 %): 40.7%
Relative abundance Chymotrypsin-molassamide complex [%], Average (Chymotrypsin [3]; S-Lense RF level 90 %): 30.7%
max. Ligand-protein ratio (Chymotrypsin [3]; concentration 0.01 µM): 0.00
max. Ligand-protein ratio (Chymotrypsin [3]; concentration 0.10 µM): 0.0566 and 0.0543 and 0.05
max. Ligand-protein ratio (Chymotrypsin [3]; concentration 1.00 µM): 0.25 and 0.22 and 0.26
max. Ligand-protein ratio (Chymotrypsin [3]; concentration 6.67 µM): 0.77 (2×) and 0.82
max. Ligand-protein ratio (Chymotrypsin [3]; concentration 12.50 µM): 0.98 and 0.93 and 0.99
max. Ligand-protein ratio (Chymotrypsin [3]; concentration 20.00 µM): 0.94 (2×) and 1.00
Peak Area Protein-Ligand-Complex (Chymotrypsin [3]; concentration [µM] 0.1): 6.16E+04
Peak Area Protein-Ligand-Complex (Chymotrypsin [3]; concentration [µM] 1): 8.18E+05
Peak Area Protein-Ligand-Complex (Chymotrypsin [3]; concentration [µM] 10): 1.09E+07
Peak Area Protein-Ligand-Complex (Chymotrypsin [3]; concentration [µM] 50): 4.40E+07
Peak Area Protein-Ligand-Complex (Chymotrypsin [3]; concentration [µM] 100): 7.00E+07
IC50 (Elastase; mean, n = 3): 37.6 nM
Mean (RFU/s) (Elastase; [4]): 0.8563 RFU/s
Mean (RFU/s) (Elastase; [5]): 0.8307 RFU/s
Mean (RFU/s) (Elastase; [6]): 0.841 RFU/s
Mean (RFU/s) (Elastase; [7]): 0.8127 RFU/s
Mean (RFU/s) (Elastase; [8]): 0.7663 RFU/s
Mean (RFU/s) (Elastase; [9]): 0.6947 RFU/s
Mean (RFU/s) (Elastase; [10]): 0.4253 RFU/s
Mean (RFU/s) (Elastase; [11]): 0.1337 RFU/s
Mean (RFU/s) (Elastase; [12]): 0.03867 RFU/s
Mean (RFU/s) (Elastase; [13]): 0 RFU/s
Mean (RFU/s) (Elastase; [14]): 0 RFU/s
